Assay results reported in US20210330736A1 (UNIVERSITEIT VAN AMSTERDAM, priority 2018, published 2021).

System: Ser40 phosphorylation of Th in HEK cells transfected with Th
Experiment: Th Ser40 phosphorylation in HEK cells transfected with Th (western blot)
Format: cell-based
Details: HEK-293 transfected with Th, low concentrations (1 μM)
Procedure: FIG. 3. HEK cells are a suitable model to study GUCY2C-induced Ser40 phosphorylation. (A) RT-qPCR data from intact HEK extracts. Input material was 10 ng of total RNA. Cp corresponds to the cycle number in which the expression starts to be considered positive. (−) represents the water control, which is negative in every case. (B) HEK cultures were transfected with Th and treated with a cGMP analogue 48 hours post-plating. Changes in Ser40 phosphorylation were studied. The graph represents the statistical analysis (n=6; Mean±SEM). Unpaired Student's t-test (p-value: ****<0.0001). Hereon, ‘Fold Change’ corresponds to the ratio P-Ser40/Total Th.
FIG. 7. PDE2a is an important effector regulating Ser40 phosphorylation in MN9D cells. BAY-60-7550 dose-curve and representative examples in MN9D (n=9, red) and HEK cells (n=4, blue) (Mean±SEM). Cells were treated with various concentrations of BAY 60-7750 and analyzed for Th phosphorylation on Ser40 , total Th and actin.
HEK cells were maintained in 100-mm Petri dishes and grown in DMEM medium supplemented with L-glutamine, penicillin-streptomycin (Pen&Strep) and 10% heat-inactivated fetal bovine serum (HIFBS). Growing conditions were 37° C. and 5% CO2. For every-other-day passages, HEK cultures were split at a 1:3 dilution. From Friday to Monday, the split proportion was doubled for all cell lines. For passaging, cultures were rinsed with PBS and incubated with 1 mL of trypsin during 5 minutes. Cells were resuspended in growth medium and finally split to the proper dilution. The experiments were performed in 12-well plates. For immunocytochemistry analysis, sterile 18-mm coverslips were added prior to the plating. 500 !μL of cell resuspension was seeded in each well. If experiments were to be performed 48 hours after the plate preparation, 1:5 was the seeding ratio for HEK cells. When the experiments took place 96 hours post-plating, 1:7 was the working dilution for HEK cells. Unless otherwise stated, HEK cultures were processed 96 hours post-plating.
HEK cells were transfected using the calcium-phosphate method. […]

COc1ccc(Cc2nn3c([C@@H](CCCc4ccccc4)[C@@H](C)O)nc(C)c3c(=O)[nH]2)cc1OC [BAY 60-7550]
effect on Ser40 phosphorylation in HEK cells: hardly exhibit any effect
effect on Ser40 phosphorylation in HEK cells (listed as BAY 60-7750): almost no effect
